From patent publication US10667515B2, “(S)-5-ethynyl-anabasine, derivatives thereof, and related compositions and methods of making and using” (priority 2016, dated 2020) come the findings set out here.

Assay [1] addresses T1, Asu-ACR-16 (Ascaris suum (Pig roundworm) (Ascaris lumbricoides), UniProt F1KYJ9). Kind of assay: cell-based. The class given is cell-based. The following applies: for maximum response (Imax): normalized to peak current of 100 μM ACh; for Emax: read-out: maximum response (Imax). As for the experimental part: Full-length Asu-acr-16 cRNA and ancillary gene Asu-ric-3 cRNA (UniProtKB Accession No. F1L1D9) were prepared as previously described (Zheng et al. (2016), supra). A cRNA mixture of 25 ng Asu-acr-16 and 5 ng Asu-ric-3 cRNA in 50 nL RNAse-free water was injected into de-folliculated Xenopus laevis oocytes (Ecocyte Bioscience, Austin, Tex., USA). The injected oocytes were incubated in an incubation solution (100 mM NaCl, 2 mM KCl, 1.8 mM CaCl2.2H2O, 1 mM MgCl2.6H20, 5 mM HEPES, 2.5 mM Na-pyruvate, 100 U/mL penicillin, and 100 μg/mL streptomycin, pH 7.5) at 19° C. for 4-8 days, after which 100 μM BAPTA-AM was added three hours before recording.
Two-electrode voltage clamp electrophysiology was used to determine agonist concentration-current-response plots to estimate the potencies (EC50s) of the agonists. The oocytes were kept in a recording solution (100 mM NaCl, 2.5 mM KCl, 1 mM CaCl2.2H2O, and 5 mM HEPES, pH 7.3) and clamped to −60 mV during recording.
Inward current signals in the oocytes were induced by the addition of chemicals that acted as agonists opening the nicotinic ion-channel receptors. […] An Axoclamp 2B amplifier (Molecular Devices, Sunnyvale, Calif.) was used to record the currents that were acquired with Clampex 9.2 software (Molecular Devices) and analyzed using GraphPad Prism 5.0 (Graphpad Software, Inc., La Jolla, Calif.).
Recording solution was then used to wash out the drug from the oocyte for 3 min prior to application of the next chemical perfusion.
Nicotine derivatives that elicited inward currents at 100 μM were classified as agonists. Increasing concentrations of each nicotine derivative were applied for 10 sec with 3-min wash intervals to determine the dose-response relationship of each agonist. […] Peak responses were recorded and normalized. […] The EC50 and Imax of each agonist were compared using the unpaired student's t-test. P<0.05 was used to evaluate the statistical difference.

The target in assay [2] is T1, Asu-ACR-16. Kind of assay: Two-electrode voltage clamp inhibition of the ACh response of Asu-ACR-16 expressed in Xenopus laevis oocytes. It is filed as cell-based.
[3] abbreviates: agonist dose-response, mean±S.E.M., N=5.
[4] abbreviates: agonist, currents normalized to 100 μM ACh, oocytes clamped to −60 mV, mean±S.E.M., N=5.
[5] abbreviates: inward currents at 100 μM classify as agonist.
[6] abbreviates: inhibition of ACh response, N=5.

Entries after “also recorded” stand apart in the source; their conditions may differ. Structures can show the parent of a compound that is named as a salt. Where two headings read alike, the source gives them in different places.

T1 sequence (F1KYJ9 1-504): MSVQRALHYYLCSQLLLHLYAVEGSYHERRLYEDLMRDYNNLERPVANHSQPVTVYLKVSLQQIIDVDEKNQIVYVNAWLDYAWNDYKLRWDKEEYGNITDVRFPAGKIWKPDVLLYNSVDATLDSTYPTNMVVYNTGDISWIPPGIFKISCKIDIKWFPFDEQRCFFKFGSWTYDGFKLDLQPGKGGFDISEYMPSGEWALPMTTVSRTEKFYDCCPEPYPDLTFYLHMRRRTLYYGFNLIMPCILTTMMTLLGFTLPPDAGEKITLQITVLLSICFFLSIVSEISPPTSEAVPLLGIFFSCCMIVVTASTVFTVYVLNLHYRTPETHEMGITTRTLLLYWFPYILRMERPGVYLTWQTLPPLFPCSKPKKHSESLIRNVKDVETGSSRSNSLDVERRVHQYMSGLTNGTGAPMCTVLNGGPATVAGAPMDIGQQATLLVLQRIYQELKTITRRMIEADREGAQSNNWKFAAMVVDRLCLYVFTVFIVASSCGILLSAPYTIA

For the compound `CN1CCCC1c1cccnc1.O=C(O)C(O)C(O)C(=O)O` (single isomer, unassigned; (-)) [(S)-nicotine, (−)-nicotine hydrogen tartrate salt], on Asu-ACR-16 [1], the “Hill slope (nH)” value is recorded as 3.39 ± 0.36 and the “agonist activity (in words)” value is “potent agonist”.

In the case of `CN1CCC[C@H]1c1cncc(C=O)c1` [(S)-nicotine-5-carboxaldehyde], the “Hill slope (nH)” value at Asu-ACR-16 [1] (setting [3]) came out at 8.61 ± 4.04. Also, on Asu-ACR-16 [1] (setting [4]), a half-maximal effect (EC50) was put at 11500 ± 630 nM. For the same compound, the “maximum response (Imax)” value on Asu-ACR-16 [1] (mean±S.E.M., N=5) is reported as 62.20 ± 6.80%.

As for `CN1CCC[C@H]1c1cccnc1` [(S)-nicotine, (−)-nicotine hydrogen tartrate salt], on Asu-ACR-16 [1], the response was half-maximal at 6210 ± 560 nM (EC50) and the Emax was determined as 82.4 ± 2.52%.

Regarding `CN1CCC[C@H]1c1ccc[n+](C)c1.[I-]` [(S)-1-methyl-nicotinium, (S)-1-methylnicotinium iodide], the “agonist activity (in words)” value at Asu-ACR-16 [1] (setting [5]) is recorded as “did not act as agonists”.

Regarding `Cc1ccc(C2CCCN2C)cn1` (stereo not shown) [6-methyl-nicotine, 6-methylnicotine], the “Hill slope (nH)” value at Asu-ACR-16 [1] (setting [3]) was 3.25 ± 0.25. Moreover, the Emax at Asu-ACR-16 [1] amounted to 69.8 ± 1.56%.

In the case of `C[N+]1(C)CCC[C@H]1c1cccnc1.[I-]` [(S)-1′-methyl-nicotinium, (S)-1′-methylnicotinium iodide], the “Hill slope (nH)” value on Asu-ACR-16 [1] (setting [3]) came to 3.52 ± 0.26. Further, the “maximum response (Imax)” value at Asu-ACR-16 [1] (mean±S.E.M., N=5) was 93.38 ± 5.25%.

Regarding `C#Cc1cncc([C@@H]2CCCCN2)c1` [(S)-5-ethynyl-anabasine], the “Hill slope (nH)” value at Asu-ACR-16 [1] (setting [3]) is recorded as 1.81 ± 0.24. Further, the “maximum response (Imax)” value at Asu-ACR-16 [1] (mean±S.E.M., N=5) is 79.33 ± 3.75%. On Asu-ACR-16 [1] (ratio of EC50 values), the “EC50 lower (more potent) than (S)-nicotine” value is listed as 44 times.

Regarding `CN1C(=O)CC[C@H]1c1cccnc1` [(S)-cotinine, (−)-cotinine], the “agonist activity (in words)” value on Asu-ACR-16 [1] (setting [5]) is recorded as “did not act as agonists”.

On to `Brc1cncc([C@@H]2CCCCN2)c1` [(S)-5-bromo-anabasine, (S)-5-bromoanabasine], for which the “Hill slope (nH)” value on Asu-ACR-16 [1] (setting [3]) came out at 4.19 ± 1.58. Also, the “maximum response (Imax)” value at Asu-ACR-16 [1] (mean±S.E.M., N=5) is 80.69 ± 2.87%.

Take `Cc1cncc(C2CCCN2C)c1` (stereo not shown) [5-methyl-nicotine, 5-methylnicotine]: at Asu-ACR-16 [1] (setting [3]), the “Hill slope (nH)” value amounted to 2.09 ± 0.14. Moreover, the response on Asu-ACR-16 [1] (setting [4]) was half-maximal at 990 ± 170 nM (EC50). The Emax at Asu-ACR-16 [1] was determined as 76 ± 1.22%.

Take `c1cncc([C@@H]2CCCCN2)c1` [(S)-anabasine]: the “Hill slope (nH)” value on Asu-ACR-16 [1] (setting [3]) was 2.26 ± 0.20. Also, on Asu-ACR-16 [1] (mean±S.E.M., N=5), the “maximum response (Imax)” value amounted to 84.82 ± 4.20%.

With `C#Cc1cncc([C@@H]2CCCN2C)c1` [(S)-SIB 1508Y, SIB 1508Y maleate], the “Hill slope (nH)” value on Asu-ACR-16 [1] (setting [3]) is recorded as 0.94 ± 0.04. At Asu-ACR-16 [1] (setting [4]), this compound had an EC50 of 370 ± 100 nM. On Asu-ACR-16 [1] (mean±S.E.M., N=5), the “maximum response (Imax)” value stood at 100.1 ± 4.36%.

As for `CN1CCC[C@H]1c1cncc(Br)c1` [(S)-5-bromo-nicotine, (S)-5-bromonicotine], on Asu-ACR-16 [1] (setting [3]), the “Hill slope (nH)” value came to 2.46 ± 0.21. A half-maximal response on Asu-ACR-16 [1] (setting [4]) (EC50) required 2040 ± 120 nM. Moreover, on Asu-ACR-16 [1], the Emax was 69.7 ± 3.28%.

In the case of `CC(=O)OCC[N+](C)(C)C.[Cl-]` [ACh, acetylcholine chloride], on Asu-ACR-16 [1] (setting [3]), the “Hill slope (nH)” value was determined as 2.93 ± 0.13.

For `CN1CCCCC1c1cccnc1` (stereo not shown) [N-methyl-anabasine, N-methyl anabasine], the “agonist activity (in words)” value at Asu-ACR-16 [1] (setting [5]) is “inactive; also recorded: did not act as agonists”.

For `c1cncc([C@@H]2CCCN2)c1` [nornicotine, (+)-nornicotine], the “Hill slope (nH)” value on Asu-ACR-16 [1] (setting [3]) was 3.25 ± 0.49. In addition, the Emax on Asu-ACR-16 [1] worked out at 62.6 ± 3.42%.

Turning to `CCN1CCCC1c1cccnc1` (stereo not shown) [homonicotine], the “Hill slope (nH)” value at Asu-ACR-16 [1] (setting [3]) was 6.78 ± 2.50. On Asu-ACR-16 [1] (mean±S.E.M., N=5), the “maximum response (Imax)” value is on record as 22.01 ± 1.39%.

Take `NC(=O)c1ccc(N)nc1` [6-AN, 6-aminonicotinamide]: half-maximal inhibition at Asu-ACR-16 [2] (IC50) was put at 2000 ± 410 nM. Moreover, the “inhibition of ACh response (in words)” value on Asu-ACR-16 [2] (100 μM derivative co-applied with 100 μM ACh) was “most potent inhibitor”. Also, at Asu-ACR-16 [2] (ACh dose-response in presence of 1 μM 6-AN, concentration- and voltage-dependent inhibition), the “mode of antagonism (in words)” value is reported as “non-competitive antagonist”. For the same compound, at Asu-ACR-16 [2] (setting [6]), the Imax is 94.88±1.49% and the nH stood at 1.02±0.05. For the same compound, the “Hill slope (nH)” value on Asu-ACR-16 [1] (setting [3]) is on record as 10.10 ± 0.15. In addition, the “agonist activity (in words)” value at Asu-ACR-16 [1] (setting [5]) is given as “little agonist activity”. The Emax at Asu-ACR-16 [1] is 6.29 ± 0.62%.
